Reference: patent publication US7067251B2 (priority 2000, dated 2006)

Tested on: C3H10T½ cells
Format: cell-based, murine

NC(=O)NO [HU, hydroxyurea]
Type X collagen synthesis: induces type X collagen synthesis
